Data published in patent US20260007601A1, “IONIZABLE CATIONIC LIPID COMPOUND AND COMPOSITION FOR DELIVERING NUCLEIC ACID AND USE THEREOF” (BEIJING YOUCAREKECHUANG PHARMACEUTICAL TECHNOLOGY CO., LTD., priority 2023, published 2026).

What was measured:
[1] = Particle size and polydispersity index (PDI) of nanolipid particles, dynamic light scattering; format: physicochemical; conditions: LNP formulation prepared from the named cationic lipid, 25° C
Procedure: The particle size and polydispersity index (PDI) were determined by dynamic light scattering method using a Malvern laser particle size analyzer. 10 μL of liposome solution was diluted to 1 mL with RNase-free deionized water and added to a sample pool. Each sample was measured three times. The measurement conditions were: 90° scattering angle, 25° C.

[2] = Encapsulation rate, drug loading concentration and total RNA concentration detection (RiboGreen); format: physicochemical; conditions: for Drug loading concentration / Encapsulation rate / Total RNA concentration: LNP formulation of the named lipid
293T cells [3] = assay: Fluorescence detection of Fluc-mRNA (cell transfection efficiency of LNP formulations); format: cell-based; conditions: for Relative light unit (RLU): LNP containing 0.3 μg Fluc-mRNA, 24 hours; for Multiples of values that equivalent to YK-201: RLU of YK-201 / RLU of the named lipid; for Multiples of values that equivalent to YK-202: RLU of YK-202 / RLU of the named lipid; for Multiples of values that equivalent to YK-209: RLU of YK-209 / RLU of the named lipid; for Ratio relative to SM-102: RLU of the named lipid / RLU of SM-102, times that of SM-102
Procedure, shortened: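 293T cells at 10,000 per well, adhered overnight, then given LNPs carrying 0.3 μg Fluc-mRNA (cationic:neutral:structured:polymer-conjugated lipid 49:10:39.5:1.5 molar). After 24 h, luciferase signal read with luciferase kit reagents on an IVIS imaging system as transfection efficiency.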

293T cells [4] = assay: Cell survival rate assay (CCK-8); format: cell-based; conditions: for Cell survival rate: LNP containing 1.5 μg Fluc-mRNA, 24 hours, CCK-8
Procedure, shortened: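 293T cells seeded at 10,000 per well and grown overnight, then exposed for 24 h to LNPs (cationic/neutral/structured/PEG lipids 49:10:39.5:1.5) carrying 1.5 μg Fluc-mRNA, or Lipofectamine 3000. Viability read by CCK-8, 1 h incubation, absorbance at 450 nm.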

female BALB/C mice = assay: Mouse in vivo imaging of Fluc-mRNA LNP formulations; set-up: average radiation intensity (mRNA expression): unit not given here; conditions: for average radiation intensity (mRNA expression): 10 μg Fluc-mRNA LNP intramuscularly
Procedure: The LNP formulation containing 10 μg Fluc-mRNA (prepared according to Example 4) was injected intramuscularly into female BALB/C mice aged 4 to 6 weeks and weighing 17 to 19 g, and the mice were intraperitoneally injected with fluorescent imaging substrates at specific time points (6 h, 24 h, 48 h and 7 d) after administration. The mice moved freely for 5 minutes, and then the average radiation intensity (corresponding to the fluorescence expression intensity) of the protein expressed by the mRNA carried by the LNP in the mice was detected by IVIS Spectrum small animal in vivo imager. The test results are shown in Tables 14 to 17 and FIGS. 12 to 14.

CCCCCCCCCCOC(=O)CCCN(CCCCCC(=O)OCC(CCCCCCCC)CCCCCCCC)CCN(C)CCO [YK-207, 2-octyldecyl-6-(2-((2-(2-hydroxyethyl(methyl)amino)ethyl)(4-oxo-4-((decyloxy)butyl)amino) hexanoate]
PDI [1]: 18.9%
Particle size [1]: 192 nm
drug loading concentration, times that of ALC-0315 [2]: 1.52 times
drug loading concentration, times that of HHMA [2]: 1.29 times
drug loading concentration, times that of SM-102 [2]: 1.56 times
drug loading concentration, times that of YK-009 [2]: 1.47 times
drug loading concentration, times that of compound 21 [2]: 1.75 times
drug loading concentration, times that of compound 23 [2]: 1.91 times
total RNA concentration, times that of ALC-0315 [2]: 1.18 times
total RNA concentration, times that of HHMA [2]: 1.15 times
total RNA concentration, times that of SM-102 [2]: 1.24 times
total RNA concentration, times that of YK-009 [2]: 1.13 times
total RNA concentration, times that of compound 21 [2]: 1.42 times
total RNA concentration, times that of compound 23 [2]: 1.34 times
Drug loading concentration [2]: 39.60 µg/mL
Encapsulation rate [2]: 90.8%
Total RNA concentration [2]: 43.63 µg/mL
encapsulation rate higher than that of ALC-0315 ([2]; difference of rates): 28.00%
encapsulation rate higher than that of HHMA ([2]; difference of rates): 30.30%
encapsulation rate higher than that of SM-102 ([2]; difference of rates): 28.50%
encapsulation rate higher than that of YK-009 ([2]; difference of rates): 27.80%
encapsulation rate higher than that of compound 21 ([2]; difference of rates): 33.00%
encapsulation rate higher than that of compound 23 ([2]; difference of rates): 35.60%
RLU / cell transfection efficiency, times that of ALC-0315 (293T cells [3]; Fluc-mRNA LNP): 9 times
RLU / cell transfection efficiency, times that of HHMA (293T cells [3]; Fluc-mRNA LNP): 10 times
RLU / cell transfection efficiency, times that of Lipofectamine 3000 (293T cells [3]; Fluc-mRNA LNP): 17 times
RLU / cell transfection efficiency, times that of YK-009 (293T cells [3]; Fluc-mRNA LNP): 4 times
RLU / cell transfection efficiency, times that of compound 21 (293T cells [3]; Fluc-mRNA LNP): 14 times
RLU / cell transfection efficiency, times that of compound 23 (293T cells [3]; Fluc-mRNA LNP): 15 times
cell transfection efficiency, times that of YK-221 (293T cells [3]; Fluc-mRNA LNP): 960.71 times
fluorescence absorption value / cell transfection efficiency, times that of YK-220 (293T cells [3]; Fluc-mRNA LNP): 124.13 times
Relative light unit (RLU) (293T cells [3]): 20878758 RLU
Multiples of values that equivalent to YK-201 (293T cells [3]): 1.36
Multiples of values that equivalent to YK-202 (293T cells [3]): 1.43
Multiples of values that equivalent to YK-209 (293T cells [3]): 1.29
Cell survival rate (293T cells [4]): 73.88%
cell survival rate higher than that of ALC-0315 (293T cells [4]; difference of rates): 23.92%
cell survival rate higher than that of HHMA (293T cells [4]; difference of rates): 8.32%
cell survival rate higher than that of Lipofectamine 3000 (293T cells [4]; difference of rates): 50.83%
cell survival rate higher than that of SM-102 (293T cells [4]; difference of rates): 5.33%
cell survival rate higher than that of compound 21 (293T cells [4]; difference of rates): 4.86%
cell survival rate higher than that of compound 23 (293T cells [4]; difference of rates): 3.78%
average radiation intensity (mRNA expression) (female BALB/C mice; 6 h): 1974100
average radiation intensity (mRNA expression) (female BALB/C mice; 24 h): 1523040
average radiation intensity (mRNA expression) (female BALB/C mice; 48 h): 525800
average radiation intensity (mRNA expression) (female BALB/C mice; 7 d): 22896
mRNA expression level in mice can reach, times that of ALC-0315 (female BALB/C mice; time point not stated): 13 times
mRNA expression level in mice can reach, times that of HHMA (female BALB/C mice; time point not stated): 16 times
mRNA expression level in mice can reach, times that of SM-102 (female BALB/C mice; time point not stated): 16 times
mRNA expression level in mice can reach, times that of compound 21 (female BALB/C mice; time point not stated): 16 times
mRNA expression level in mice can reach, times that of compound 23 (female BALB/C mice; time point not stated): 16 times

CCCCCCCCCCOC(=O)CCCN(CCO)CCCCCC(=O)OCC(CCCCCCCC)CCCCCCCC [YK-009, reference compound]
PDI [1]: 13.0%
Particle size [1]: 202 nm
Drug loading concentration [2]: 26.86 µg/mL
Encapsulation rate [2]: 63.0%
Total RNA concentration [2]: 38.62 µg/mL
Relative light unit (RLU) (293T cells [3]): 5125986 RLU
Multiples of values that equivalent to YK-201 (293T cells [3]): 5.56
Multiples of values that equivalent to YK-202 (293T cells [3]): 5.84
Multiples of values that equivalent to YK-209 (293T cells [3]): 5.24
Ratio relative to SM-102 (293T cells [3]): 3.08
Cell survival rate (293T cells [4]): 72.88%
average radiation intensity (mRNA expression) (female BALB/C mice; 6 h): 1012400
average radiation intensity (mRNA expression) (female BALB/C mice; 24 h): 767850
average radiation intensity (mRNA expression) (female BALB/C mice; 48 h): 128570
average radiation intensity (mRNA expression) (female BALB/C mice; 7 d): 10741

CCCCCCCCCCCOC(=O)CCCCCN(CCCCCCCC(=O)OC(CCCCCCCC)CCCCCCCC)CCN(CC)CCO [YK-204, heptadecan-9-yl-8-(2-((2-hydroxyethyl)(ethylamino))ethyl)(6-oxo-6-((undecanyloxy)hexyl)amino)octanoate]
PDI [1]: 17.7%
Particle size [1]: 193 nm
Drug loading concentration [2]: 32.62 µg/mL
Encapsulation rate [2]: 75.9%
Total RNA concentration [2]: 42.98 µg/mL
Relative light unit (RLU) (293T cells [3]): 363998 RLU
Multiples of values that equivalent to YK-201 (293T cells [3]): 78.25
Multiples of values that equivalent to YK-202 (293T cells [3]): 82.30
Multiples of values that equivalent to YK-209 (293T cells [3]): 57.85
Ratio relative to SM-102 (293T cells [3]): 0.22
Cell survival rate (293T cells [4]): 42.57%
average radiation intensity (mRNA expression) (female BALB/C mice; 6 h): 35245
average radiation intensity (mRNA expression) (female BALB/C mice; 24 h): 5230
average radiation intensity (mRNA expression) (female BALB/C mice; 48 h): 2440
average radiation intensity (mRNA expression) (female BALB/C mice; 7 d): 754

CCCCCCCCCCCCC(O)CN(C)CCCCCC(=O)OCC(CCCCCC)CCCCCCCC (centres unmarked) [HHMA, reference compound]
PDI [1]: 15.1%
Particle size [1]: 135 nm
Drug loading concentration [2]: 30.6 µg/mL
Encapsulation rate [2]: 60.5%
Total RNA concentration [2]: 37.84 µg/mL
Relative light unit (RLU) (293T cells [3]): 2099714 RLU
Multiples of values that equivalent to YK-201 (293T cells [3]): 13.56
Multiples of values that equivalent to YK-202 (293T cells [3]): 14.27
Ratio relative to SM-102 (293T cells [3]): 1.26
Cell survival rate (293T cells [4]): 65.56%
average radiation intensity (mRNA expression) (female BALB/C mice; 6 h): 638870
average radiation intensity (mRNA expression) (female BALB/C mice; 24 h): 109650
average radiation intensity (mRNA expression) (female BALB/C mice; 48 h): 29445
average radiation intensity (mRNA expression) (female BALB/C mice; 7 d): 5312

CCCCCCCCCCOC(=O)CCCN(CCCCCC(=O)OCCC(CCCCCC)CCCCCC)CCOC(=O)SCCCN(C)C [YK-217, 3-hexylnonyl-11-(4-(decyloxy)-4-oxobutyl)-2-methyl-7-oxo-8-oxo-6-thio-2,11-diazaheptane-17-carboxylate]
PDI [1]: 17.9%
Particle size [1]: 210 nm
Drug loading concentration [2]: 42.19 µg/mL
Encapsulation rate [2]: 90.4%
Total RNA concentration [2]: 46.66 µg/mL
Relative light unit (RLU) (293T cells [3]): 71850 RLU
Multiples of values that equivalent to YK-201 (293T cells [3]): 396.42
Multiples of values that equivalent to YK-202 (293T cells [3]): 416.94
Multiples of values that equivalent to YK-209 (293T cells [3]): 293.09
Ratio relative to SM-102 (293T cells [3]): 0.04
Cell survival rate (293T cells [4]): 42.27%
average radiation intensity (mRNA expression) (female BALB/C mice; 6 h): 24585
average radiation intensity (mRNA expression) (female BALB/C mice; 24 h): 2650
average radiation intensity (mRNA expression) (female BALB/C mice; 48 h): 1024
average radiation intensity (mRNA expression) (female BALB/C mice; 7 d): 523

CCCCCCCCCCCOC(=O)CCCCCN(CCCCCCCC(=O)OC(CCCCCCCC)CCCCCCCC)CCN(C)CCOC [YK-215]
PDI [1]: 20.8%
Particle size [1]: 219 nm
Drug loading concentration [2]: 29.30 µg/mL
Encapsulation rate [2]: 68.0%
Total RNA concentration [2]: 43.13 µg/mL
Relative light unit (RLU) (293T cells [3]): 981165 RLU
Multiples of values that equivalent to YK-201 (293T cells [3]): 29.03
Multiples of values that equivalent to YK-202 (293T cells [3]): 30.53
Multiples of values that equivalent to YK-209 (293T cells [3]): 21.46
Ratio relative to SM-102 (293T cells [3]): 0.59
Cell survival rate (293T cells [4]): 44.59%
average radiation intensity (mRNA expression) (female BALB/C mice; 6 h): 50564
average radiation intensity (mRNA expression) (female BALB/C mice; 24 h): 6815
average radiation intensity (mRNA expression) (female BALB/C mice; 48 h): 3640
average radiation intensity (mRNA expression) (female BALB/C mice; 7 d): 1020
